Experimental data reported in publication PMC10828444, “Selective inhibition of overactive warmth-sensitive Ca^2+-permeable TRPV3 channels by antispasmodic agent flopropione for alleviation of skin inflammation” (The Journal of Biological Chemistry, 2023).

Experiments:
hTRPM8 = molecular target: T1, hTRPM8 (Homo sapiens, UniProt Q7Z2W7); assay: Whole-cell patch-clamp of TRPM8 currents elicited by menthol in HEK293 cells; assay type: cell-based; conditions: flopropione 100 μM, menthol 500 μM
T1 construct: expressed in transfected cells; host or cells: HEK293
Method: (§1) HEK293 cells were cultured in Dulbecco’s modified Eagle’s medium (DMEM, Gibco) containing 4.5 g/L D-glucose supplemented with 10% fetal bovine serum based at 37 °C with 5% CO2. For whole-cell patch-clamp recordings, cells were grown in glass coverslips for 24 h before transient transfections with 3000 ng cDNAs of hTRPV3 (gene accession number BC104866.1), hTRPV1 (accession number NM_080704.3), mTRPV2 (accession number NM_011706.2), hTRPV4 (accession number NM_021625.5), hTRPA1 (accession number NM_007332.3) and hTRPM8 (accession number NM_024080.5) into HEK293 cells grown in a 35-mm cell culture dish using Lipofectamine 2000 (Invitrogen). Cells were used 18 ∼ 24 h after transfection. All WT or mutant hTRPV3 plasmids were validated by DNA sequencing.
(§2) Whole-cell patch clamp recordings of wild-type and mutants were carried out at room temperature using the HEKA EPC10 amplifier powered by PatchMaster software (HEKA) or MultiClamp 700B amplifier driven by Clampex 11.0.3 software. The borosilicate glass pipettes were pulled and fire-polished to 3∼6 MΩ using a DMZ universal electrode puller (Zeitz-Instruments, GmbH). Pipette solution and bath solution both contained (in mM): 130 NaCl, three HEPES, and 0.2 EDTA (pH = 7.4). Cell membrane potential was held at 0 mV, currents were recorded at a voltage ramp from −100 to +100 mV for 500-ms and analyzed at ±80 mV.

TRPV3-E501A mutant = molecular target: T2, TRPV3-E501A mutant (Homo sapiens, UniProt Q8NET8, E501A); assay: Whole-cell and single-channel recordings of TRPV3-E501A mutant; assay type: cell-based; conditions: 100 μM flopropione whole-cell (50 μM 2-APB); 50 μM single-channel (30 μM 2-APB)
T2 construct: expressed in transfected cells; host or cells: HEK293
T2 sequence (Q8NET8 1-790 E501A): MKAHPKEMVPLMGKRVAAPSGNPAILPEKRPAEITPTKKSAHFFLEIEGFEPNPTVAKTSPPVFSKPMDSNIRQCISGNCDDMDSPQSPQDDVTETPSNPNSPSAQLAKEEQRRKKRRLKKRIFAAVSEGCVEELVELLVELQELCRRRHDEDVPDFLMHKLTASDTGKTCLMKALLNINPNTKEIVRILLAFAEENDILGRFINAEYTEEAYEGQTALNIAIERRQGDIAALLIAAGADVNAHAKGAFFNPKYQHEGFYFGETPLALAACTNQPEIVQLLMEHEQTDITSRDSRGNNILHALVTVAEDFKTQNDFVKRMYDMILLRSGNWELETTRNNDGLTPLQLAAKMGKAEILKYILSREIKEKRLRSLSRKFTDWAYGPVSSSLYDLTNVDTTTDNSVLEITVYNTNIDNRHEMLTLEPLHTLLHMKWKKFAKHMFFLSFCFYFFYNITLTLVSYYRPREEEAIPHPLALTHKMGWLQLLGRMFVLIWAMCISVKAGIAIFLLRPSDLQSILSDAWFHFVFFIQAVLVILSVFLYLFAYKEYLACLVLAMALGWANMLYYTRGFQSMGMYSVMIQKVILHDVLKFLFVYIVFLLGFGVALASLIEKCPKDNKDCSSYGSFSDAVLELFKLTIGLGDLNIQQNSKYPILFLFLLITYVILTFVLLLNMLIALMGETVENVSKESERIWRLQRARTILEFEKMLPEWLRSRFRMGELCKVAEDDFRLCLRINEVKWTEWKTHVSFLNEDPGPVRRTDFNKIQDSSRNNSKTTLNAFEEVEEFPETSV
Method: as §1
as §2, with “mV. […]” for “mV.”

[1] = system: DNFB-induced ear swelling; assay: Mouse model of ear swelling induced by DNFB; assay type: in vivo, C57BL/6J mice; conditions: topical 0.1, 1, 10 mM on right ear for 4 days, vs DNFB alone
Method: Mice were placed in a gas anesthesia device (SurgiVet) for anesthesia before the hair on the back was removed with a razor, followed by the application of an appropriate amount of hair removal cream to gently shave off the remaining hair. For generation of atopic dermatitis and ear swelling, chemical skin sensitizer DNFB (1-Fluoro-2,4-dinitrobenzene), commonly known as Sanger’s Reagent, was dissolved in a solvent (acetone/olive oil = 4/1, v/v) and 0.5% DNFB in 100 μl was applied once topically to the back and right ear for skin sensitization 1 day after acclimatization for hair removal ([43]) without any treatment for next 3 days. On the fifth and sixth days, 0.2% DNFB in 50 μl was applied topically once a day for 2 days for challenge before different concentrations of flopropione in 100 μl were topically applied once a day for four consecutive days. […]
The score contents and criteria include (1): skin erythematous/bleeding (2), skin scratches/erosion (3), skin edema (4), skin scaling or lichenoid change ([44]). Each symptom was scored from 0 to 3 (none, 0; mild, one; moderate, two; severe, (3). The final score was defined as the sum of individual scores on a scale from 0 to 12. Mouse ear thickness was measured once a day for continuous 5 days with the first measurement of ear thickness 30 min after the last application of 0.2% DNFB using vernier caliper.

T1 sequence (Q7Z2W7 whole entry): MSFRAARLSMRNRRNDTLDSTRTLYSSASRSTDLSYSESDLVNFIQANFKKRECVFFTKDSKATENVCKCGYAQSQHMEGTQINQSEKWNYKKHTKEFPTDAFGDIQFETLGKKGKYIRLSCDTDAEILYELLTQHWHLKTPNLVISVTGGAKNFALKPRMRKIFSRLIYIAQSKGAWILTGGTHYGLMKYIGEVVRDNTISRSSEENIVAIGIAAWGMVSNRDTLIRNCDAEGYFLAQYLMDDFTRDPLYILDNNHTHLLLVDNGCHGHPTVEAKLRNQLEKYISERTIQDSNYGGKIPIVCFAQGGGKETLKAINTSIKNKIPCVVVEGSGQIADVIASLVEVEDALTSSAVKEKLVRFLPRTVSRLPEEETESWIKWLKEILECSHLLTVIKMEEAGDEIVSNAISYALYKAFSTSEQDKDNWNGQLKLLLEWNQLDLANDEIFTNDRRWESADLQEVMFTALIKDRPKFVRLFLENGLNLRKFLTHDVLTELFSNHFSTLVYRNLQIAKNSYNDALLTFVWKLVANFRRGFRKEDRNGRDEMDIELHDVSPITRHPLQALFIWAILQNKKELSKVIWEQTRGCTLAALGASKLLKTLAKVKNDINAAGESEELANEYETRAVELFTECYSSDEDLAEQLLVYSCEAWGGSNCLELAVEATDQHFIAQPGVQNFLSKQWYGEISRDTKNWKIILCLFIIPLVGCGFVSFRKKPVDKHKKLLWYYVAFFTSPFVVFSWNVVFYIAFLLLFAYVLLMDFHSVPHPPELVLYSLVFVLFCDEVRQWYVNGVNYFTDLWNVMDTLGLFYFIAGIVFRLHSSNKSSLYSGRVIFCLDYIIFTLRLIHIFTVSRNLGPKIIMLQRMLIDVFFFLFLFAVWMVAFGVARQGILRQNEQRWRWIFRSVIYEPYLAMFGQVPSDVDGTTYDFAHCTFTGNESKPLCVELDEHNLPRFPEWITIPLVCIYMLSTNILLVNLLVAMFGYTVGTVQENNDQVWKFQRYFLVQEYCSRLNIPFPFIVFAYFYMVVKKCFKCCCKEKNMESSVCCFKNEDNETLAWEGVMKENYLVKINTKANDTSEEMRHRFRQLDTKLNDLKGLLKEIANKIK

## CCC(=O)c1c(O)cc(O)cc1O [flopropione]
hTRPM8
  effect on TRPM8 currents: no effect
TRPV3-E501A mutant
  effect of E501A mutation on inhibition by flopropione: significantly reduced TRPV3 inhibition
[1]
  ear swelling (ear thickness, vernier caliper): significantly reduced ear swelling
